# Test results from patent US8124634B2, “CB1 receptor modulators” (7TM Pharma A/S, priority 2006, dated 2012).
# pIC50: −log10 of the molar value.
# Molecular target: T1, human CB1 receptor (Homo sapiens, UniProt P21554)
# T1 construct: expressed in transfected cells; membranes
# Assay: Cannabinoid Receptor-1 functional assay: inhibition of CP55940-induced [35S]GTPγS binding to membranes of CHO-K1 cells expressing human CB1
# Format: biochemical
# Conditions: 3 nM CP55940, hCB1 membranes, [35S]GTPγS SPA; read-out: IC50 value for antagonizing a CB1 receptor agonist
# Source text: Transfection and Cell Culture—The cDNA encoding the human CB1 (Cannabinoid Receptor-1) receptor (GenBank accession number NM_016083) was cloned from a human adipose tissue cDNA library and cloned into the eukaryotic expression vector pcDNA3.1 (Invitrogen).
# Chinese Hamster Ovary cells (CHO-K1) stably expressing recombinant human CB1 were generated by transfecting the plasmid containing the coding sequence of the human CB1 receptor in CHO-K1 cells, using lipofectamin, according to the manufacturer instructions. Resistant clones were selected in the presence of 600 μg/ml G418 (Life technology). Stably transfected CHO-K1 cells were maintained in Ham's F-12 culture medium (Invitrogen), supplemented with 10% fetal calf serum (Invitrogen), 100 U/ml penicillin, 100 μg/ml streptomycin (Life Technology), and 600 μg/ml G418.
# Cannabinoid Receptor-1 Functional Assay.
# Functional activities of the above examples of compounds of the invention were assessed in vitro by measuring their ability to inhibit CP55940-induced [^35S]GTPγS binding to membranes prepared from CHO-K1 cells expressing the human CB1 receptor (described in Transfection and Cell Culture). CP55940 is a well known non-selective CB1 and CB2 receptor agonist (e.g Felder et al., 1995, Molecular Pharmacology, (48) 443-50). Membranes were prepared by a standard procedure. Briefly, cells were harvested using 10 mM EDTA and collected by centrifugation. Pelleted cells were homogenized in ice-cold 20 mM Hepes (pH 7.4),10 mM EDTA and protease inhibitors (Complete protease inhibitor cocktail tablet, Roche) using an Ultra Turrax Homogenizer. The homogenate was centrifuged at 14 000 rpm for 45 min. at 4° C. The resultant pellet was resuspended in the same buffer but with only 0.1 mM EDTA and was again centrifuged at 14 000 rpm for 45 min. at 4° C. The resulting pellet (membranes) was resuspended in 20 mM Hepes (pH 7.4), 0.1 mM EDTA, 2 mM MgCl2 and protease inhibitors and protein concentration was determined by Micro BCA Protein Assay Reagent Kit (Pierce Biotechnology) according to the manufacturer instructions. The [^35S]GYPγS SPA (Scintillation Proximity Assay) binding assay was performed by incubating 5 μg/well hCB1-membranes with 1 nM [^35S]GYPγS (Perkin Elmer—NEG 030H) in the presence of 3 nM of CP55940 and various concentrations of the test compounds at room temperature for 1 hr in 96-well microtiter plates. 0.4 mg/well SPA beads (PVT-WGA; RPNQ0001 Amersham Pharmacia Biotech) were then added and the incubation continued for further 30 min. on an orbital shaker. The assay buffer contained 50 mM HEPES (pH 7.5), 50 mM NaCl, 2.5 mM MgCl2, 0.1% BSA, 1 μM GDP and 100 μg/ml Saponin. Microtiter plates were centrifuged at 1500 rpm for 5 min. and radioactivity was read immediately using a Topcounter (PerkinElmer Life Sciences). Data were analyzed and IC50 values determined by non-linear regression using the Prism software (GraphPad Software, San Diego).
# T1 sequence (P21554 whole entry): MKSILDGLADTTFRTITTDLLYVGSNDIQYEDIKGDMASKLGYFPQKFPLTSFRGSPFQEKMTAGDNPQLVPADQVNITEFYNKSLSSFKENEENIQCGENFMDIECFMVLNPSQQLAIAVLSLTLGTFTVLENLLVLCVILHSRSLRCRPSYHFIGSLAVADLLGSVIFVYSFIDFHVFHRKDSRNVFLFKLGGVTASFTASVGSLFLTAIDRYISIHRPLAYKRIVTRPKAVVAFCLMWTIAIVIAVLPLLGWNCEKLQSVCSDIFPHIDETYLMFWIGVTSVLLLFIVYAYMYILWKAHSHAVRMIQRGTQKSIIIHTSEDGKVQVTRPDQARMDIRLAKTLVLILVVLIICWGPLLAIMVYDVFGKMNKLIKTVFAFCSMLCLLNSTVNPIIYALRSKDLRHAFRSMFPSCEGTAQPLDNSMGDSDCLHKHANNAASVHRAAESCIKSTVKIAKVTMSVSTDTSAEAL
row,SMILES,pIC50
1,"C[C@@H](NC(=O)c1nn(-c2ccccc2Cl)c(-c2ccc(Cl)cc2)c1Cc1nn[nH]n1)c1ccc(F)c(Cl)c1 [[2.24], 1-(2-Chloro-phenyl)-5-(4-chloro-phenyl)-4-(2H-tetrazol-5-ylmethyl)-1H-pyrazole-3-carboxylic acid [(R)-1-(3-chloro-4-fluoro-phenyl)-ethyl]-amide]",> 6.52
2,"CC(NC(=O)c1nn(-c2ccccc2Cl)c(-c2ccc(Cl)cc2)c1Cc1nnn[nH]1)c1ccc(Cl)c(Cl)c1 (centres unmarked) [[2.13], 1-(2-Chloro-phenyl)-5-(4-chloro-phenyl)-4-(1H-tetrazol-5-ylmethyl)-1H-pyrazole-3-carboxylic acid [1-(3,4-dichloro-phenyl)-ethyl]-amide]",> 6.52
3,"C[C@@H](NC(=O)c1nn(-c2ccccc2Cl)c(-c2ccc(Cl)cc2)c1Cc1nnn[nH]1)c1cccc(Cl)c1 [[2.25], 1-(2-Chloro-phenyl)-5-(4-chloro-phenyl)-4-(1H-tetrazol-5-ylmethyl)-1H-pyrazole-3-carboxylic acid [(R)-1-(3-chloro-phenyl)-ethyl]-amide]",> 6.52
4,"CC(NC(=O)c1nn(-c2ccccc2Cl)c(-c2ccc(Cl)cc2)c1Cc1nn[nH]n1)c1ccc(Br)cc1F (centres unmarked) [[2.20], 1-(2-Chloro-phenyl)-5-(4-chloro-phenyl)-4-(2H-tetrazol-5-ylmethyl)-1H-pyrazole-3-carboxylic acid [1-(4-bromo-2-fluoro-phenyl)-ethyl]-amide]",> 6.52
5,"C[C@@H](NC(=O)c1nn(-c2ccccc2Cl)c(-c2ccc(Cl)cc2)c1OCC(=O)O)c1ccc(C(F)(F)F)cc1 [Compound [1.3], {1-(2-Chloro-phenyl)-5-(4-chloro-phenyl)-3-[(R)-1-(4-trifluoromethyl-phenyl)-ethylcarbamoyl]-1H-pyrazol-4-yloxy}-acetic acid]",> 6.52
6,"C[C@H](c1ccc(C(F)(F)F)cc1)N(C)C(=O)c1nn(-c2ccccc2Cl)c(-c2ccc(Cl)cc2)c1C(O)C(=O)O (stereo partly drawn) [Compound [1.12], (1-(2-Chloro-phenyl)-5-(4-chloro-phenyl)-3-{methyl-[(R)-1-(4-trifluoromethyl-phenyl)-ethyl]-carbamoyl}-1H-pyrazol-4-yl)-2-hydroxyacetic acid]",> 6.52
7,"CC(c1ccc(S(C)(=O)=O)cc1)N(C)C(=O)c1nn(-c2ccccc2Cl)c(-c2ccc(Cl)cc2)c1CC(=O)O (centres unmarked) [[1.8], (1-(2-Chloro-phenyl)-5-(4-chloro-phenyl)-3-{methyl-[1-(4-methylsufonyl-phenyl)-ethyl]-carbamoyl}-1H-pyrazol-4-yl)-acetic acid]",5.52 to 6.52

# The remaining lines, values ahead:
row,pIC50,SMILES
1,> 6.52,"C[C@@H](NC(=O)c1nn(-c2ccccc2Cl)c(-c2ccc(Cl)cc2)c1Cc1nnn[nH]1)c1ccc(Cl)cc1 [[2.9], 1-(2-Chloro-phenyl)-5-(4-chloro-phenyl)-4-(1H-tetrazol-5-ylmethyl)-1H-pyrazole-3-carboxylic acid [(R)-1-(4-chloro-phenyl)-ethyl]-amide]"
2,5.52 to 6.52,"C[C@H](NC(=O)c1nn(-c2ccccc2Cl)c(-c2ccc(Cl)cc2)c1Cc1nnn[nH]1)c1ccc(Br)cc1 [[2.4], 1-(2-Chloro-phenyl)-5-(4-chloro-phenyl)-4-(1H-tetrazol-5-ylmethyl)-1H-pyrazole-3-carboxylic acid [(S)-1-(4-bromo-phenyl)-ethyl]-amide]"
3,> 6.52,"C[C@H](c1ccc(OC(F)(F)F)cc1)N(C)C(=O)c1nn(-c2ccccc2Cl)c(-c2ccc(Cl)cc2)c1Cc1nnn[nH]1 [[2.27], 1-(2-Chloro-phenyl)-5-(4-chloro-phenyl)-4-(1H-tetrazol-5-ylmethyl)-1H-pyrazole-3-carboxylic acid methyl-[(R)-1-(4-trifluoromethoxy-phenyl)-ethyl]-amide]"
4,> 6.52,"CC(NC(=O)c1nn(-c2ccccc2Cl)c(-c2ccc(Cl)cc2)c1Cc1nnn[nH]1)c1ccc(Br)cc1 (centres unmarked) [Compound [2.1], 1-(2-Chloro-phenyl)-5-(4-chloro-phenyl)-4-(1H-tetrazol-5-ylmethyl)-1H-pyrazole-3-carboxylic acid [1-(4-bromo-phenyl)-ethyl]-amide]"
